The record followed here is patent US10870647B2, “Imidazopyridine derivative, method for preparing same, and pharmaceutical composition containing same as active ingredient for preventing or treating cancer” (DAEGU-GYEONGBUK MEDICAL INNOVATION FOUNDATION, priority 2016, dated 2020).

Common to all, as to assay: Kinase selectivity, scanMAX Kinase assay panel (DiscoverX), % control at 1 uM
Type in all cases: binding

The target of assay [1] is T1, scanMAX Kinase assay panel (Homo sapiens, UniProt P36507).
T1 construct: purchased DiscoverX
The following applies: MEK2; 1 uM; read-out: Percent Control (%). In a few lines: (§1)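 A single concentration of 1 uM, in DMSO, is applied across the kinase panel. Activity against an individual enzyme is assigned where % control is less than 35.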

Assay [2] concerns the target T2, scanMAX Kinase assay panel (Homo sapiens, UniProt P27448).
T2 construct: purchased DiscoverX
The following applies: MARK3; 1 uM; read-out: Percent Control (%). The method in brief: as §1

The target of assay [3] is T3, scanMAX Kinase assay panel (Homo sapiens, UniProt O00444).
T3 construct: purchased DiscoverX
T3 sequence (O00444 1-970): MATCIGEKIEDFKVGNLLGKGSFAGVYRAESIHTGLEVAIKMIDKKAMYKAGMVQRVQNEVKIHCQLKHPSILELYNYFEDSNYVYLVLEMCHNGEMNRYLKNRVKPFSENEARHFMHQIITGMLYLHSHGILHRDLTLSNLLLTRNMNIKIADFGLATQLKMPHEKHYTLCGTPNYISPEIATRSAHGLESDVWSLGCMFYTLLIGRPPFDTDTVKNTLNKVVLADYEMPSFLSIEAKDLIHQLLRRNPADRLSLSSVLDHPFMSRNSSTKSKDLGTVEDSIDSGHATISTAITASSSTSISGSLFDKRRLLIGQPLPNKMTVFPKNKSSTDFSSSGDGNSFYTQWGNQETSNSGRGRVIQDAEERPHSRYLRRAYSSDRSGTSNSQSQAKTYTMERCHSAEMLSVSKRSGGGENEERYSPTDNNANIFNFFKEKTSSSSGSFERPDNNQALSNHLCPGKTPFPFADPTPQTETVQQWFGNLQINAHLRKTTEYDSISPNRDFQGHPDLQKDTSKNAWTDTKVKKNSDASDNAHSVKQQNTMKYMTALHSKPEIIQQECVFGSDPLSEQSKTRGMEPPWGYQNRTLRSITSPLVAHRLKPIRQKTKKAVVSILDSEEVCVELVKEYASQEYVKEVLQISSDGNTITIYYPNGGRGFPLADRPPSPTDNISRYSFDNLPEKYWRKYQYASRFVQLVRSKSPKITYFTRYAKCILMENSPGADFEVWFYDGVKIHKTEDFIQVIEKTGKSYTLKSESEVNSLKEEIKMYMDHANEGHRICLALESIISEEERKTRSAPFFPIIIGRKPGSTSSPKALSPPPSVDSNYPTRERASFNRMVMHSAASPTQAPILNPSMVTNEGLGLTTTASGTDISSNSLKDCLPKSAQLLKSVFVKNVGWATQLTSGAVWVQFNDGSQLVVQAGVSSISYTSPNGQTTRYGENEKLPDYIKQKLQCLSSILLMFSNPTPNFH
The note with it: PLK4; 1 uM; read-out: Percent Control (%). The method in brief: as §1

Assay [4] concerns the target T4, scanMAX Kinase assay panel (Homo sapiens, UniProt O15075).
T4 construct: purchased DiscoverX
The following applies: DCAMKL1; 1 uM; read-out: Percent Control (%). In a few lines:
as §1

For assay [5], the target named is T5, scanMAX Kinase assay panel (Homo sapiens, UniProt Q9Y243).
T5 construct: purchased DiscoverX
The following applies: AKT3; 1 uM; read-out: Percent Control (%). The method in brief:
as §1

For assay [6], the target named is T6, scanMAX Kinase assay panel (Homo sapiens, UniProt O75116).
T6 construct: purchased DiscoverX
The note with it: ROCK2; 1 uM; read-out: Percent Control (%). In a few lines: as §1

Assay [7] has as its target T7, scanMAX Kinase assay panel (Homo sapiens, UniProt O43283).
T7 construct: purchased DiscoverX
T7 sequence (O43283 1-966): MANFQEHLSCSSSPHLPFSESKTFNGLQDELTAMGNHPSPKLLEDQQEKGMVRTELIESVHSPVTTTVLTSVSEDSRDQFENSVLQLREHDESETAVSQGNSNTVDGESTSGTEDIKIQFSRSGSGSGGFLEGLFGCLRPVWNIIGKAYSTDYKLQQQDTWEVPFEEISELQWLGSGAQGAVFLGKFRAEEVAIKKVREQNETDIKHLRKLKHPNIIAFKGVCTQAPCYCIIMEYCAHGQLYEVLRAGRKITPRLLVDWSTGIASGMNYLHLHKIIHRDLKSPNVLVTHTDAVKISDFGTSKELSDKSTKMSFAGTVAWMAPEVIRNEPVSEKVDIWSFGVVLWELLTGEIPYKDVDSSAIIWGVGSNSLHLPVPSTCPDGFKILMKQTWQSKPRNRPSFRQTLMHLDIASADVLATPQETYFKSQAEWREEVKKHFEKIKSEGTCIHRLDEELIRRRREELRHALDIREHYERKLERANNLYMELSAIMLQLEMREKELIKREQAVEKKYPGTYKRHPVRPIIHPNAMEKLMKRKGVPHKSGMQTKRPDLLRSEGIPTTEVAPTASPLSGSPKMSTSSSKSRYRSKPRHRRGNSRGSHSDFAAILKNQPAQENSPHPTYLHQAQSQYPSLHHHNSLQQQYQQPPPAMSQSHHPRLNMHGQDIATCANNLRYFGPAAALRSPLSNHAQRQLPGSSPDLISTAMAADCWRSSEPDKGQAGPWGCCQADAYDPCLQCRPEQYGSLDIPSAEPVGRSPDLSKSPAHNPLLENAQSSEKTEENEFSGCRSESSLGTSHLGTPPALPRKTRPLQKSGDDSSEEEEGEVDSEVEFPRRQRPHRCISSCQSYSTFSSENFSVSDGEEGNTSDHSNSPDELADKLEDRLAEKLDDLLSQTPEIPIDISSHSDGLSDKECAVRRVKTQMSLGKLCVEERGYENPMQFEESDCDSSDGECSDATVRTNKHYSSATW
The following applies: LZK; 1 uM; read-out: Percent Control (%). In a few lines:
as §1

Assay [8] has as its target T8, scanMAX Kinase assay panel (Homo sapiens, UniProt P07949, M918T).
T8 construct: purchased DiscoverX
The following applies: RET (M918T); 1 uM; read-out: Percent Control (%). The method in brief:
as §1

T8 sequence (P07949 29-1114 M918T): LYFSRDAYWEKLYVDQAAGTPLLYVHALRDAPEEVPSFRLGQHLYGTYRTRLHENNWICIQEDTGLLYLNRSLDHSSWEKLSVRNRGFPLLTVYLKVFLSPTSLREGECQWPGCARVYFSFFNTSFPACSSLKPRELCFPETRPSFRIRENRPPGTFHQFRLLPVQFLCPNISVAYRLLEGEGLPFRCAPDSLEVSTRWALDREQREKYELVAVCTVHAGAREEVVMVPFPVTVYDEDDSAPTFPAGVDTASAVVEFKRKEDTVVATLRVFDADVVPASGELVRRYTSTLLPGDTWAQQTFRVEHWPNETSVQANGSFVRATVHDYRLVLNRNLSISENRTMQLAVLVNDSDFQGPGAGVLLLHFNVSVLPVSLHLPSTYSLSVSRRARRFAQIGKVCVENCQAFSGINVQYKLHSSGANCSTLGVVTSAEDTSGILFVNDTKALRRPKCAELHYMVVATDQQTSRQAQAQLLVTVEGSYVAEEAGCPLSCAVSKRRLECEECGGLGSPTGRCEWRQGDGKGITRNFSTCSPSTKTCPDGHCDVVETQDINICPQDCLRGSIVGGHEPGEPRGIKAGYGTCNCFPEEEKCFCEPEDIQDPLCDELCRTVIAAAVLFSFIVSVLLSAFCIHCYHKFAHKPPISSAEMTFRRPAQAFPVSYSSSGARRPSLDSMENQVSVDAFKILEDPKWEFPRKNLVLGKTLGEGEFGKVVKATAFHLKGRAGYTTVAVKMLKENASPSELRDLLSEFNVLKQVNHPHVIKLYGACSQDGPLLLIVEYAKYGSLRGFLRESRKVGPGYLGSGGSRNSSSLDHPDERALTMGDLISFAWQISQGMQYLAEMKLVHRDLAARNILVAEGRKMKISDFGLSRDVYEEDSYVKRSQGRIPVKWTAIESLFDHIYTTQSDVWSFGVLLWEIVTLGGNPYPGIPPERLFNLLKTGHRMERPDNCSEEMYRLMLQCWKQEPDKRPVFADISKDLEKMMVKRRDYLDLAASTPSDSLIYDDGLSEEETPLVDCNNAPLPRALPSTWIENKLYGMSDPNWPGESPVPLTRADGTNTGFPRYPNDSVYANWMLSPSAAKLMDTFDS
T4 sequence (O15075 whole entry): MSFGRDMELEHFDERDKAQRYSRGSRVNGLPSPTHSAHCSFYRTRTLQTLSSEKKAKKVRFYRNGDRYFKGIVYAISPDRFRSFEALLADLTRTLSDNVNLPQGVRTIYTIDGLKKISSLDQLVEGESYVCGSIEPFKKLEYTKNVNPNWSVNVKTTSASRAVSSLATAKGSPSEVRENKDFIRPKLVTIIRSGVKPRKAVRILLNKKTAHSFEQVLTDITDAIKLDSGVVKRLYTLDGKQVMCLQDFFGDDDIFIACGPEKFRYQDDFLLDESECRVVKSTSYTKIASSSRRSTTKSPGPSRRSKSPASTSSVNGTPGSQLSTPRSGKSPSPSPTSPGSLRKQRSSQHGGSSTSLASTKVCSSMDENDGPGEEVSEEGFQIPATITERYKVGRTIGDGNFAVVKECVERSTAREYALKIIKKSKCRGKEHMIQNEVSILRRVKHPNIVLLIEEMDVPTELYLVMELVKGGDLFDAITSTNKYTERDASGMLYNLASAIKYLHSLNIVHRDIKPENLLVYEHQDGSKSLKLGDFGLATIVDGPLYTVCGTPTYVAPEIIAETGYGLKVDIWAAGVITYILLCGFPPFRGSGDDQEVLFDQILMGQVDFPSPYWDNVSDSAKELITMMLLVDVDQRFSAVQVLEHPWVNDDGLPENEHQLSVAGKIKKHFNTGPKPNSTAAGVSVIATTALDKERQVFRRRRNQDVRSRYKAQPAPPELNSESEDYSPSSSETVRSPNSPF
T6 sequence (O75116 whole entry): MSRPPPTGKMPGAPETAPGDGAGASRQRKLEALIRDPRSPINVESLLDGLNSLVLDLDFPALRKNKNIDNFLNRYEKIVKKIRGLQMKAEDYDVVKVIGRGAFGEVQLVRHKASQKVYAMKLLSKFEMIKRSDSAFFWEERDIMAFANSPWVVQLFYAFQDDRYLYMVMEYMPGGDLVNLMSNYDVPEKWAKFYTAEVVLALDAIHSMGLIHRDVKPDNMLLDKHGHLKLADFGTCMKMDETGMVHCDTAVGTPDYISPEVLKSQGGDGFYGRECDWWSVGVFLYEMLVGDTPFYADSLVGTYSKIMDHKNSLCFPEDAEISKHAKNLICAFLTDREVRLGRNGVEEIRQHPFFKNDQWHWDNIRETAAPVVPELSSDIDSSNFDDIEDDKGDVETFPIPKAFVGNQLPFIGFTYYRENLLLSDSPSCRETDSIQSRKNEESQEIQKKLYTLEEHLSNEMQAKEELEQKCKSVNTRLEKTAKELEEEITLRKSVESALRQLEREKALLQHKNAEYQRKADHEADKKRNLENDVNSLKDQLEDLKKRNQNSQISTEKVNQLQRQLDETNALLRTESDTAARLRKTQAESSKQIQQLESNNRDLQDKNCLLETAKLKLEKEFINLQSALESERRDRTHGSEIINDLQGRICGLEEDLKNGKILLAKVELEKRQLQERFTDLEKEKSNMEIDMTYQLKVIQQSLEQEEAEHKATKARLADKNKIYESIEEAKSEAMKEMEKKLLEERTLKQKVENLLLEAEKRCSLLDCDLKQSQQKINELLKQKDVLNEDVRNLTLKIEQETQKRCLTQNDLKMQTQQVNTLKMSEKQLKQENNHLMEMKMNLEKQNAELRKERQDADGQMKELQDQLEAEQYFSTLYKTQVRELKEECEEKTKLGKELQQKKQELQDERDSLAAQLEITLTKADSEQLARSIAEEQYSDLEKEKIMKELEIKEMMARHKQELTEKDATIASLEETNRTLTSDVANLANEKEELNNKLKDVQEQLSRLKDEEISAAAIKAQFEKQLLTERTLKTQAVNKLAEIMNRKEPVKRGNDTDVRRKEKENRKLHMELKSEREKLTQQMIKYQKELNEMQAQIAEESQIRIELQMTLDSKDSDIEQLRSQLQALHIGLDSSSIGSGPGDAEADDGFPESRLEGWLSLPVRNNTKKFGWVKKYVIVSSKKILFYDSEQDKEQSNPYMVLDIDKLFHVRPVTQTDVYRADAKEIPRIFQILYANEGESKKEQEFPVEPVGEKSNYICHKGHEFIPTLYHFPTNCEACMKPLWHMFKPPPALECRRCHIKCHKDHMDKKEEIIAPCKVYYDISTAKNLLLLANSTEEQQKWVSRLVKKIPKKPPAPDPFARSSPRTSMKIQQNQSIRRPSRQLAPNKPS
T2 sequence (P27448 whole entry): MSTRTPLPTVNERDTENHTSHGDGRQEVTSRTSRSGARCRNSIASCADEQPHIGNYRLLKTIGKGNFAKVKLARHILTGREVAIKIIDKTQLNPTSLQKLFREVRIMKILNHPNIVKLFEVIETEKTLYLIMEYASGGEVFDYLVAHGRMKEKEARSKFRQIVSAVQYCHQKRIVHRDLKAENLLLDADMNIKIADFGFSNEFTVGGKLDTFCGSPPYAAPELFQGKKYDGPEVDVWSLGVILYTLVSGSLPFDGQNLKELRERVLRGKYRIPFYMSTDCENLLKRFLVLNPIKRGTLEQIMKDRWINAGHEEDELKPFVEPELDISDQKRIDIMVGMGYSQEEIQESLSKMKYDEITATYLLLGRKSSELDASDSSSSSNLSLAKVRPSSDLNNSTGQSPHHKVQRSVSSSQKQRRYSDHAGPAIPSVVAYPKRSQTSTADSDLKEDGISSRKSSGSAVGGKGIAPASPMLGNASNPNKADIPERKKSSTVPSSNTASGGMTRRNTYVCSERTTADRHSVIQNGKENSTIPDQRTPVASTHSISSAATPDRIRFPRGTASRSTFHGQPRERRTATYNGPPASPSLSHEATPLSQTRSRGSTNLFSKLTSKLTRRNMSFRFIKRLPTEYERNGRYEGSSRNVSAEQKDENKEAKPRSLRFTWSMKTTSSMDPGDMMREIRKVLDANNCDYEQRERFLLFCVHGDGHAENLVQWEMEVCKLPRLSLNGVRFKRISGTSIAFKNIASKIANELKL
T5 sequence (Q9Y243 whole entry): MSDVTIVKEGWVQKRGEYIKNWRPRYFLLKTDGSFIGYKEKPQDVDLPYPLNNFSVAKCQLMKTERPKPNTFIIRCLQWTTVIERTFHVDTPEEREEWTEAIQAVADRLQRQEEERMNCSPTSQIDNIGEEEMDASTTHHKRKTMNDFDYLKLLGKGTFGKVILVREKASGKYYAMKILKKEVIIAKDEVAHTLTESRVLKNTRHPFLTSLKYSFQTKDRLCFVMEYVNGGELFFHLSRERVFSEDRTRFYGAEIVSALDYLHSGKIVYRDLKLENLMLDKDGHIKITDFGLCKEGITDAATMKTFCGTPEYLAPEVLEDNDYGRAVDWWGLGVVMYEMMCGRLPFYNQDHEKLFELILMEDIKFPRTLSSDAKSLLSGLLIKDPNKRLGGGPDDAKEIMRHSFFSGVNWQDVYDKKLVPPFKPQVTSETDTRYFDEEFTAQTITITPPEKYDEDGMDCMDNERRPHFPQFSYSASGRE
T1 sequence (P36507 whole entry): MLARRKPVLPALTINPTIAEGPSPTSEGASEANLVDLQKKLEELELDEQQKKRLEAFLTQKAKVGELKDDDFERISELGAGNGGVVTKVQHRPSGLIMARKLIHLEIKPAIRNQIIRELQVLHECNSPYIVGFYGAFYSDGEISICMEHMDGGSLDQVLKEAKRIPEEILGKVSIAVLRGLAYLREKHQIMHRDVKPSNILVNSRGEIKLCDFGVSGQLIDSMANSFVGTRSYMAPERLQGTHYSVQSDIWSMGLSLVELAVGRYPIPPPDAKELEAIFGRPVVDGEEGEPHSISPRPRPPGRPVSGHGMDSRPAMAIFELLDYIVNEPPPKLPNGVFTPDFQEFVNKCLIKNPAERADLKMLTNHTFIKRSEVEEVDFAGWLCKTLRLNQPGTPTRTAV

As for `Cc1ccc(C(=O)Nc2ccc(CN3CCN(C)CC3)c(C(F)(F)F)c2)cc1C#Cc1cnc2c(Nc3cnn(C)c3)cccn12` [Example 1, 4-methyl-3-((8-((1-methyl-1H-pyrazol-4-yl)amino)imidazo[1,2-a]pyridin-3-yl)ethynyl)-N-(4-((4-methylpiperazin-1-yl)methyl)-3-(trifluoromethyl)phenyl)benzamide], the remaining binding at 1 µM is 76% in assay [1]; 53% in assay [2]; 79% in assay [3]; 54% in assay [4]; 99% in assay [5]; 15% in assay [6]. The remaining binding at 1 µM in assay [7] amounted to 71%; in assay [8], 0%.

As for `Cc1cn(-c2cc(NC(=O)c3ccc(C)c(C#Cc4cnc5c(Nc6cnn(C)c6)cccn45)c3)cc(C(F)(F)F)c2)cn1` [Example 12, 4-methyl-N-(3-(4-methyl-1H-imidazol-1-yl)-5-(trifluoromethyl)phenyl)-3-((8-((1-methyl-1H-pyrazol-4-yl)amino)imidazo[1,2-a]pyridin-3-yl)ethynyl)benzamide], the remaining binding at 1 µM in assay [1] worked out at 88%; in assay [2] it was 94%; in assay [3], 85%; in assay [4] it was 91%; in assay [5], 99%; in assay [6] it was 100%. Further, the figures for the remaining binding at 1 µM in assay [7] and in assay [8] were 100% and 0%, respectively.

Consider `Cc1ccc(NC(=O)C2(C(=O)Nc3ccc(F)cc3)CC2)cc1C#Cc1cnc2c(Nc3cnn(C(C)C)c3)cccn12` [Example 78], for which the remaining binding at 1 µM in assay [1] came to 97%; in assay [2], 100%; in assay [3] it was 100%; in assay [4], 95%; in assay [5] it was 95%; in assay [6] it was 100%. The remaining binding at 1 µM in assay [7] amounted to 94%; in assay [8], 100%.
